Test results reported in ChEMBL document CHEMBL1201862, “PubChem BioAssay data set” (2004).
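Grown in 96-well plates, cells were treated for 48 hours with each compound at five concentrations. Insufficient inhibition: endpoint recorded as highest concentration tested. Abbreviation: GI50, concentration required for 50% inhibition of growth.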 Activity calls are given as the source filed them. Cut-off read from the data, not from the text of the source: active = GI50 up to about 1.1 µM and inactive = higher.

How the values were obtained:
Test in all cases: inhibition of tumour cell growth, NCI panel, 48 h
[1] = system: NCI/ADR-RES
[2] = system: OVCAR-3
[3] = system: SF-539
[4] = system: LOX IMVI
[5] = system: HCC 2998
[6] = system: HOP-62
[7] = system: NCI-H522
[8] = system: CAKI-1
[9] = system: SK-MEL-5
[10] = system: MDA-MB-435
[11] = system: T47D
[12] = system: SK-MEL-2
[13] = system: IGROV-1
[14] = system: SNB-75
[15] = system: NCI-H226
[16] = system: COLO 205
[17] = system: PC-3
[18] = system: SK-MEL-28
[19] = system: EKVX
[20] = system: KM12
[21] = system: U-251
[22] = system: HCT-15
[23] = system: ACHN
[24] = system: MCF7
[25] = system: TK-10
[26] = system: DU-145
[27] = system: HT-29
[28] = system: M14
[29] = system: 786-0
[30] = system: SF-295
[31] = system: MDA-MB-231
[32] = system: NCI-H460
[33] = system: SF-268
[34] = system: Hs-578T
[35] = system: MDA-N
[36] = system: UO-31
[37] = system: SK-OV-3
[38] = system: OVCAR-8
[39] = system: SN12C
[40] = system: SW-620
[41] = system: Malme-3M
[42] = system: RXF 393
[43] = system: OVCAR-5
[44] = system: NCI-H23
[45] = system: RPMI-8226
[46] = system: CCRF-CEM
[47] = system: UACC-62
[48] = system: MOLT-4
[49] = system: K562
[50] = system: HCT-116
[51] = system: UACC-257
[52] = system: A549
[53] = system: HOP-92
[54] = system: A498
[55] = system: SR
[56] = system: SNB-19
[57] = system: HL-60
[58] = system: OVCAR-4

For `N#C/C(=C/C=C/c1ccco1)C(N)=O`, the GI50 [1] was > 10 µM (inactive), the GI50 [2] was > 10 µM (inactive) and the GI50 [3] was > 10 µM (inactive). For the same compound, the GI50 [4] was > 10 µM (inactive), the GI50 [5] was > 10 µM (inactive) and the GI50 [6] was > 10 µM (inactive). The GI50 [7] was > 10 µM (inactive), the GI50 [8] was > 10 µM (inactive) and the GI50 [9] was > 10 µM (inactive). The GI50 [10] was > 10 µM (inactive), the GI50 [11] was > 10 µM (inactive) and the GI50 [12] was > 10 µM (inactive). The GI50 [13] was > 10 µM (inactive), the GI50 [14] was > 10 µM (inactive) and the GI50 [15] was > 10 µM (inactive). The GI50 [16] was > 10 µM (inactive), the GI50 [17] was > 10 µM (inactive) and the GI50 [18] was > 10 µM (inactive). For the same compound, the GI50 [19] was > 10 µM (inactive), the GI50 [20] was > 10 µM (inactive) and the GI50 [21] was > 10 µM (inactive). The GI50 [22] was over 10 µM, the GI50 [23] was > 10 µM (inactive) and the GI50 [24] was > 10 µM (inactive). The GI50 [25] was > 10 µM (inactive), the GI50 [26] was > 10 µM (inactive) and the GI50 [27] was > 10 µM (inactive). For the same compound, the GI50 [28] was > 10 µM (inactive), the GI50 [29] was > 10 µM (inactive) and the GI50 [30] was > 10 µM (inactive). The GI50 [31] was > 10 µM (inactive), the GI50 [32] was > 10 µM (inactive) and the GI50 [33] was > 10 µM (inactive). The GI50 [34] was > 10 µM (inactive), the GI50 [35] was > 10 µM (inactive) and the GI50 [36] was > 10 µM (inactive). The GI50 [37] was > 10 µM (inactive), the GI50 [38] was > 10 µM (inactive) and the GI50 [39] was > 10 µM (inactive). For the same compound, the GI50 [40] was > 10 µM (inactive), the GI50 [41] was > 10 µM (inactive) and the GI50 [42] was > 10 µM (inactive). For the same compound, the GI50 [43] was > 10 µM (inactive).

`CC(C)Cc1ccc(C(C)C(=O)O)cc1` (centres undefined) [IBUPROFEN] was tested, and the GI50 [44] was > 100 µM (inactive).

In the case of `COc1cc([C@@H]2c3cc4c(cc3[C@@H](Nc3ccc(C(=O)N[C@H]5CCc6cc(OC)c(OC)c(OC)c6-c6ccc(SC)c(=O)cc65)cc3)[C@H]3COC(=O)[C@H]23)OCO4)cc(OC)c1O`, the GI50 [1] is reported as 0.493 µM (active), the GI50 [3] is reported as < 0.01 µM (active) and the GI50 [45] is reported as < 0.01 µM (active). The GI50 [4] was < 0.01 µM (active), the GI50 [7] was < 0.01 µM (active) and the GI50 [8] was 0.132 µM (active). For the same compound, the GI50 [10] was < 0.01 µM (active), the GI50 [12] was < 0.01 µM (active) and the GI50 [15] was < 0.01 µM (active). For the same compound, the GI50 [16] was < 0.01 µM (active), the GI50 [18] was 13 µM (inactive) and the GI50 [21] was < 0.01 µM (active). For the same compound, the GI50 [22] was 0.428 µM, the GI50 [23] was 0.0598 µM (active) and the GI50 [24] was < 0.01 µM (active). The GI50 [25] was 15.2 µM (inactive), the GI50 [46] was < 0.01 µM (active) and the GI50 [27] was < 0.01 µM (active). For the same compound, the GI50 [28] was < 0.01 µM (active), the GI50 [29] was < 0.01 µM (active) and the GI50 [30] was < 0.01 µM (active). The GI50 [32] was < 0.01 µM (active), the GI50 [47] was < 0.01 µM (active) and the GI50 [33] was 11.7 µM (inactive). For the same compound, the GI50 [48] was < 0.01 µM (active), the GI50 [49] was < 0.01 µM (active) and the GI50 [50] was < 0.01 µM (active). The GI50 [51] was < 0.01 µM (active), the GI50 [36] was 0.698 µM (active) and the GI50 [38] was < 0.01 µM (active). The GI50 [52] was < 0.01 µM (active), the GI50 [39] was < 0.01 µM (active) and the GI50 [44] was < 0.01 µM (active). For the same compound, the GI50 [40] was < 0.01 µM (active), the GI50 [53] was 0.042 µM (active) and the GI50 [41] was 0.322 µM (active). For the same compound, the GI50 [54] was 0.437 µM (active), the GI50 [43] was 43.1 µM (inactive) and the GI50 [55] was < 0.01 µM (active).

`NCc1ccc(-c2ccc(CN)s2)s1` was tested, and the GI50 [1] was 13.1 µM (inactive), the GI50 [2] was 42.3 µM (inactive) and the GI50 [3] was > 100 µM (inactive). For the same compound, the GI50 [45] was > 100 µM (inactive), the GI50 [4] was > 100 µM (inactive) and the GI50 [5] was > 100 µM (inactive). The GI50 [6] was > 100 µM (inactive), the GI50 [7] was > 100 µM (inactive) and the GI50 [8] was > 100 µM (inactive). For the same compound, the GI50 [56] was > 100 µM (inactive), the GI50 [9] was > 100 µM (inactive) and the GI50 [10] was > 100 µM (inactive). The GI50 [11] was 69.8 µM (inactive), the GI50 [12] was > 100 µM (inactive) and the GI50 [13] was 10.9 µM (inactive). The GI50 [14] was > 100 µM (inactive), the GI50 [15] was 41.1 µM (inactive) and the GI50 [16] was 23 µM (inactive). For the same compound, the GI50 [17] was > 100 µM (inactive), the GI50 [18] was > 100 µM (inactive) and the GI50 [19] was > 100 µM (inactive). The GI50 [20] was > 100 µM (inactive), the GI50 [21] was > 100 µM (inactive) and the GI50 [22] was over 100 µM. The GI50 [23] was > 100 µM (inactive), the GI50 [24] was 44 µM (inactive) and the GI50 [25] was 11.3 µM (inactive). The GI50 [26] was > 100 µM (inactive), the GI50 [46] was > 100 µM (inactive) and the GI50 [27] was > 100 µM (inactive). The GI50 [57] was > 100 µM (inactive), the GI50 [28] was > 100 µM (inactive) and the GI50 [29] was > 100 µM (inactive). The GI50 [30] was > 100 µM (inactive), the GI50 [58] was > 100 µM (inactive) and the GI50 [31] was > 100 µM (inactive). The GI50 [47] was 14.6 µM (inactive), the GI50 [48] was > 100 µM (inactive) and the GI50 [49] was > 100 µM (inactive). For the same compound, the GI50 [35] was > 100 µM (inactive), the GI50 [50] was > 100 µM (inactive) and the GI50 [51] was 42.4 µM (inactive). The GI50 [36] was > 100 µM (inactive), the GI50 [37] was 83.8 µM (inactive) and the GI50 [38] was 86.5 µM (inactive). For the same compound, the GI50 [52] was > 100 µM (inactive), the GI50 [39] was > 100 µM (inactive) and the GI50 [44] was > 100 µM (inactive). For the same compound, the GI50 [40] was > 100 µM (inactive), the GI50 [53] was > 100 µM (inactive) and the GI50 [41] was > 100 µM (inactive). The GI50 [54] was 1.22 µM (inactive), the GI50 [42] was > 100 µM (inactive) and the GI50 [43] was 56.2 µM (inactive).

With `COc1cc(C2c3cc4c(cc3[C@@H](NC3CCN(Cc5ccccc5)CC3)C3COC(=O)[C@H]23)OCO4)cc(OC)c1O` (some centres undefined) the GI50 [39] was 0.0399 µM (active) and the GI50 [55] was < 0.01 µM (active).
